Tested on: Anti-phencyclidine antibodies
Assay: Ion-Capture Competitive Binding Assay For Phencyclidine (PCP) in Urine

SMILES: c1ccc(C2(N3CCCCC3)CCCCC2)cc1 [PCP, phencyclidine]
- % Bound (25 ng/mL PCP in urine, Side A): 83.00%
- % Bound (25 ng/mL PCP in urine, Side B): 85.50%
- % Bound (60 ng/mL PCP in urine, Side A): 94.60%
- % Bound (60 ng/mL PCP in urine, Side B): 94.19%
- % Bound (120 ng/mL PCP in urine, Side A): 97.44%
- % Bound (120 ng/mL PCP in urine, Side B): 97.54%
- % Bound (250 ng/mL PCP in urine, Side A): 99.28%
- % Bound (250 ng/mL PCP in urine, Side B): 99.32%
- % Bound (500 ng/mL PCP in urine, Side A): 100.00%
- % Bound (500 ng/mL PCP in urine, Side B): 100.00%

Source: US5441894A, “Device containing a light absorbing element for automated chemiluminescent immunoassays” (Abbott Laboratories, priority 1993, dated 1995)
